“Also recorded” adds a separate entry of the source. Blank lines part the entries; values can stand above or below the compound they belong to.
Columns and labels:
rats = assay: Body temperature in rats after TRPV1 antagonist followed by acetaminophen; type: in vivo
Procedure: In this study rats were first treated with vehicle (Oraplus/5% Tween 80) or a TRPV1 antagonist (Compound A; 3 mg/kg, p.o.). Following a 120 min period, separate groups of rats were then administered vehicle (Oraplus/5% Tween 80) or acetaminophen (300 mg/kg, p.o.). Body temperature was then measured for an additional 120 min.

TRPV1 [1] = conditions: different species; cited from earlier work
TRPV1 [2] = conditions: cited from earlier work

SMILES: CC(=O)Nc1ccc(O)cc1 [acetaminophen]
body temperature after TRPV1 antagonist followed by acetaminophen (rats; Compound A 3 mg/kg p.o., then after 120 min acetaminophen 300 mg/kg p.o. (Compound A+Acet group), measured for an additional 120 min): reversed; also recorded: decreased to levels observed in the control group | body temperature, acetaminophen alone (rats; vehicle, then after 120 min acetaminophen 300 mg/kg p.o. (Veh+Acet group)): decreased

SMILES: C=C(C)[C@]12C[C@@H](C)[C@@]34O[C@](Cc5ccccc5)(O[C@@H]1[C@@H]3C=C(COC(=O)Cc1ccc(O)c(OC)c1)C[C@]1(O)C(=O)C(C)=C[C@@H]41)O2 [RTX, resiniferatoxin]
hypothermia induced by TRPV1 agonists (TRPV1 [1]): induce hypothermia

body temperature following treatment with TRPV1 antagonist (rats; 3 mg/kg, p.o., 120 min period after dosing): significant increase in body temperature | body temperature compared to the control group (Veh+Veh) (rats; Compound A 3 mg/kg p.o. followed after 120 min by vehicle (Compound A+Veh group), measured for an additional 120 min): remained elevated
SMILES: CC(=O)Nc1nc2c(Oc3cc(-c4ccc(C(F)(F)F)cc4NC(=O)OC(C)(C)C)ncn3)cccc2s1 [Compound A, {2-[6-(2-acetylamino-benzothiazol-4-yloxy)-pyrimidin-4-yl]-5-trifluoromethyl-phenyl}-carbamic acid tert-butyl ester]

SMILES: COc1cc(CNC(=O)CCCC/C=C/C(C)C)ccc1O [capsaicin]
hypothermia induced by TRPV1 agonists (TRPV1 [1]): induce hypothermia | hypothermia in mice lacking TRPV1 (TRPV1 [2]): did not induce hypothermia

Reference: patent US20090312433A1, “TREATMENT OF VR1-ANTAGONIST-INDUCED INCREASE IN BODY TEMPERATURE WITH AN ANTIPYRETIC AGENT” (Amgen Inc., priority 2005, published 2009)
